Laboratory results: patent US7994185B2, “Benzene sulfonamide thiazole and oxazole compounds” (Glaxo Smith Kline LLC, priority 2008, dated 2011)
Like-named read-outs stand apart in the source and are kept apart here.

Experiments:
[1] = target: T1, BRAFV600E full-length (amino acids 2-766) (Homo sapiens, UniProt P15056, V600E); assay: B-Raf Accelerated MEK ATPase assay (BRAMA); assay type: biochemical
T1 construct: His6-tagged BRAFV600E full-length (amino acids 2-766); His6; made in house; host or cells: baculovirus expression system (insect cells)
Method in brief: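 Coupled-enzyme readout: ADP generated by MEK-mediated ATP hydrolysis, uncoupled from ERK phosphorylation, is linked to NADH oxidation through pyruvate kinase and lactate dehydrogenase.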

[2] = test system: Human colon tumor cells (Colo205); assay: Cell growth inhibition assay (CellTiter-Glo), Colo205; assay type: cell-based
Method in brief: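 Growth is estimated from total cellular ATP measured by CellTiter-Glo luminescence after a 3-day compound exposure at 37 °C. Compounds are tested as 1:3 dilution series in 0.2% final DMSO, with inhibition expressed relative to vehicle-treated wells.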

[3] = test system: Human melanoma cancer cells (SK-MEL-28); assay: Cell growth inhibition assay (CellTiter-Glo), SK-MEL-28; assay type: cell-based
[4] = B-Raf Activity, Table 1a, highest pIC50 for the one or more runs, categorized
[5] = B-Raf pIC50, Table 1b, later runs, average pIC50 for the one or more runs, categorized
[6] = COLO 205, 72 h, Table 2a, 3 days incubation, read-out: Activity in Colo205 Tumor Cells
[7] = COLO 205, Table 2b, later runs, average for the one or more runs, categorized, read-out: IC50 for Colo205
[8] = SK-MEL-28, 72 h, Table 3a, 3 days incubation, read-out: Activity in SK-MEL-28 Tumor Cells
[9] = SK-MEL-28, Table 3b, later runs, average for the one or more runs, categorized, read-out: IC50 for SK-MEL-28
[10] = Table 1b, later runs, average pIC50 for the one or more runs, categorized, read-out: B-Raf pIC50 (converted)

T1 sequence (P15056 2-766 V600E): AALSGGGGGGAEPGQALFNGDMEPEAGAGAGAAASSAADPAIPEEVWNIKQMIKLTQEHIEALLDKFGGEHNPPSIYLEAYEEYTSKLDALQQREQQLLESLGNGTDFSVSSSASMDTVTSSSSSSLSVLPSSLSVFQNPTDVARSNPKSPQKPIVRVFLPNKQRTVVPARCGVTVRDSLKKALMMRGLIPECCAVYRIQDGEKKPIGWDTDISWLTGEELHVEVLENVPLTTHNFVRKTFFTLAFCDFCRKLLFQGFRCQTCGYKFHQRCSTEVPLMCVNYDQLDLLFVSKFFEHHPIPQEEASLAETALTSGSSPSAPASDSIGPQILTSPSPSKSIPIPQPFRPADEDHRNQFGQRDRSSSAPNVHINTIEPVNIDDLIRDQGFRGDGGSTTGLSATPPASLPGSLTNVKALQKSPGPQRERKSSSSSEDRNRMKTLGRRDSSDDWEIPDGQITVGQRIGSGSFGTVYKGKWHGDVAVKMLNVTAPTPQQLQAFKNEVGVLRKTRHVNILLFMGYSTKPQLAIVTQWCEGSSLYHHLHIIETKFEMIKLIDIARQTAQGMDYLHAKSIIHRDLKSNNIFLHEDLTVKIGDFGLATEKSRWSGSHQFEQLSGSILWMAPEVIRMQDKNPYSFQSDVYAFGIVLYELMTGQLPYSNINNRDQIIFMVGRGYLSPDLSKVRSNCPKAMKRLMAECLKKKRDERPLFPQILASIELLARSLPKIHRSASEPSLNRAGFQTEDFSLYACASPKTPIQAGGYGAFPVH

Structure (SMILES) | IC50 [1, 4] [nM] | IC50 [1, 5] [nM] | IC50 [2, 6] [nM] | IC50 [2, 7] [nM] | IC50 [3, 8] [nM] | IC50 [3, 9] [nM] | IC50 [1, 10] [nM] | IC50 [1] [nM]
Nc1nccc(-c2sc(C3CCOCC3)nc2-c2ccc(F)c(NS(=O)(=O)c3cc(F)ccc3F)c2)n1 [Example 68, N-{5-[5-(2-Amino-4-pyrimidinyl)-2-(tetrahydro-2H-pyran-4-yl)-1,3-thiazol-4-yl]-2-fluorophenyl}-2,5-difluorobenzenesulfonamide] | 100 to 1000 | 31.6 to 1000 | > 1000 | 1000 to 10000 | > 1000 | 1000 to 10000 |  | 
CC(C)CNc1nccc(-c2sc(C3CCOCC3)nc2-c2ccc(F)c(NS(=O)(=O)c3cc(F)ccc3F)c2)n1 [Example 69, 2,5-Difluoro-N-{2-fluoro-5-[5-{2-[(2-methylpropyl)amino]-4-pyrimidinyl}-2-(tetrahydro-2H-pyran-4-yl)-1,3-thiazol-4-yl]phenyl}benzenesulfonamide] | < 100 | ≤ 3.16 | 100 to 1000 | 100 to 1000 | 100 to 1000 | 100 to 1000 |  | 
CS(=O)(=O)N1CCC(Nc2nccc(-c3sc(C4CCOCC4)nc3-c3ccc(F)c(NS(=O)(=O)c4cc(F)ccc4F)c3)n2)CC1 [Example 70, 2,5-Difluoro-N-{2-fluoro-5-[5-(2-{[1-(methylsulfonyl)-4-piperidinyl]amino}-4-pyrimidinyl)-2-(tetrahydro-2H-pyran-4-yl)-1,3-thiazol-4-yl]phenyl}benzenesulfonamide] | < 100 |  | 100 to 1000 | 100 to 1000 | 100 to 1000 | 100 to 1000 | 3.16 to 31.6 | 
Nc1nccc(-c2sc(C3CCOC3)nc2-c2cccc(NS(=O)(=O)c3c(F)cccc3F)c2F)n1 (stereo not shown) [Example 71, N-{3-[5-(2-Amino-4-pyrimidinyl)-2-(tetrahydro-3-furanyl)-1,3-thiazol-4-yl]-2-fluorophenyl}-2,6-difluorobenzenesulfonamide] | < 100 |  | 100 to 1000 | 100 to 1000 | 100 to 1000 | 100 to 1000 | 3.16 to 31.6 | 
Nc1nccc(-c2sc(C3CCC3)nc2-c2cccc(NS(=O)(=O)c3c(F)cccc3F)c2Cl)n1 [Example 72, N-{3-[5-(2-Amino-4-pyrimidinyl)-2-cyclobutyl-1,3-thiazol-4-yl]-2-chlorophenyl}-2,6-difluorobenzenesulfonamide] | < 100 | ≤ 3.16 | 100 to 1000 | 100 to 1000 | < 100 | < 100 |  | 
CNc1nccc(-c2sc(C(C)C)nc2-c2ccc(F)c(NS(=O)(=O)c3cc(F)ccc3F)c2)n1 [Example 73, 2,5-Difluoro-N-{2-fluoro-5-[5-[2-(methylamino)-4-pyrimidinyl]-2-(1-methylethyl)-1,3-thiazol-4-yl]phenyl}benzenesulfonamide] | < 100 |  | > 1000 | 1000 to 10000 | > 1000 | 1000 to 10000 | 3.16 to 31.6 | 
CC(C)c1nc(-c2ccc(F)c(NS(=O)(=O)c3cc(F)ccc3F)c2)c(-c2ccnc(NC3CC(C)(C)NC(C)(C)C3)n2)s1 [Example 74, 2,5-Difluoro-N-[2-fluoro-5-(2-(1-methylethyl)-5-{2-[(2,2,6,6-tetramethyl-4-piperidinyl)amino]-4-pyrimidinyl}-1,3-thiazol-4-yl)phenyl]benzenesulfonamide] | < 100 | ≤ 3.16 | < 100 | < 100 | 100 to 1000 | 100 to 1000 |  | 
CC(C)c1nc(-c2ccc(F)c(NS(=O)(=O)c3cc(F)ccc3F)c2)c(-c2ccnc(NC3CCN(S(C)(=O)=O)CC3)n2)s1 [Example 75, 2,5-Difluoro-N-{2-fluoro-5-[2-(1-methylethyl)-5-(2-{[1-(methylsulfonyl)-4-piperidinyl]amino}-4-pyrimidinyl)-1,3-thiazol-4-yl]phenyl}benzenesulfonamide] | < 100 | ≤ 3.16 | < 100 | < 100 | < 100 | < 100 |  | 
CC(C)c1nc(-c2ccc(F)c(NS(=O)(=O)c3cc(F)ccc3F)c2)c(-c2ccnc(NC3CCOCC3)n2)s1 [Example 76, 2,5-Difluoro-N-(2-fluoro-5-{2-(1-methylethyl)-5-[2-(tetrahydro-2H-pyran-4-ylamino)-4-pyrimidinyl]-1,3-thiazol-4-yl}phenyl)benzenesulfonamide] | < 100 |  | 100 to 1000 | 100 to 1000 | 100 to 1000 | 100 to 1000 | 3.16 to 31.6 | 
CC(=O)N1CCC(Nc2nccc(-c3sc(C(C)C)nc3-c3ccc(F)c(NS(=O)(=O)c4cc(F)ccc4F)c3)n2)CC1 [Example 77, N-{5-[5-{2-[(1-Acetyl-4-piperidinyl)amino]-4-pyrimidinyl}-2-(1-methylethyl)-1,3-thiazol-4-yl]-2-fluorophenyl}-2,5-difluorobenzenesulfonamide] | < 100 |  | < 100 | < 100 | < 100 | < 100 | 3.16 to 31.6 | 
CC(C)(C)c1nc(-c2cccc(NS(=O)(=O)c3c(F)cccc3F)c2F)c(-c2ccnc(NC3CCN(S(C)(=O)=O)CC3)n2)s1 [Example 78, N-{3-[2-(1,1-Dimethylethyl)-5-(2-{[1-(methylsulfonyl)-4-piperidinyl]amino}-4-pyrimidinyl)-1,3-thiazol-4-yl]-2-fluorophenyl}-2,6-difluorobenzenesulfonamide] | < 100 | ≤ 3.16 | < 100 | < 100 | < 100 | < 100 |  | 
CS(=O)(=O)N1CCC(Nc2nccc(-c3sc(N4CCOCC4)nc3-c3cccc(NS(=O)(=O)c4c(F)cccc4F)c3F)n2)CC1 [Example 79, 2,6-Difluoro-N-{2-fluoro-3-[5-(2-{[1-(methylsulfonyl)-4-piperidinyl]amino}-4-pyrimidinyl)-2-(4-morpholinyl)-1,3-thiazol-4-yl]phenyl}benzenesulfonamide] | < 100 | ≤ 3.16 | < 100 | < 100 | < 100 | < 100 |  | 
CS(=O)(=O)N1CCC(Nc2nccc(-c3sc(C4CCC4)nc3-c3ccc(F)c(NS(=O)(=O)c4cc(F)ccc4F)c3)n2)CC1 [Example 80, N-{5-[2-Cyclobutyl-5-(2-{[1-(methylsulfonyl)-4-piperidinyl]amino}-4-pyrimidinyl)-1,3-thiazol-4-yl]-2-fluorophenyl}-2,5-difluorobenzenesulfonamide] | < 100 |  | 100 to 1000 | 100 to 1000 | 100 to 1000 | 100 to 1000 | 3.16 to 31.6 | 
CS(=O)(=O)N1CCC(Nc2nccc(-c3sc(C4CCC4)nc3-c3cccc(NS(=O)(=O)c4cc(F)ccc4F)c3F)n2)CC1 [Example 81, N-{3-[2-Cyclobutyl-5-(2-{[1-(methylsulfonyl)-4-piperidinyl]amino}-4-pyrimidinyl)-1,3-thiazol-4-yl]-2-fluorophenyl}-2,5-difluorobenzenesulfonamide] | < 100 | ≤ 3.16 | < 100 | < 100 | < 100 | < 100 |  | 
CS(=O)(=O)N1CCC(Nc2nccc(-c3sc(N4CCOCC4)nc3-c3cccc(NS(=O)(=O)c4cc(F)ccc4F)c3F)n2)CC1 [Example 82, 2,5-Difluoro-N-{2-fluoro-3-[5-(2-{[1-(methylsulfonyl)-4-piperidinyl]amino}-4-pyrimidinyl)-2-(4-morpholinyl)-1,3-thiazol-4-yl]phenyl}benzenesulfonamide] |  |  | < 100 |  | < 100 |  |  | < 100
CC(C)Nc1nccc(-c2sc(N3CCOCC3)nc2-c2cccc(NS(=O)(=O)c3cc(F)ccc3F)c2F)n1 [Example 83, 2,5-Difluoro-N-{2-fluoro-3-[5-{2-[(1-methylethyl)amino]-4-pyrimidinyl}-2-(4-morpholinyl)-1,3-thiazol-4-yl]phenyl}benzenesulfonamide] | < 100 | ≤ 3.16 | < 100 | < 100 | < 100 | < 100 |  | 
CC(C)c1nc(-c2cccc(NS(=O)(=O)c3cccc(F)c3)c2)c(-c2ccnc(NCC(=O)O)n2)s1 [Example 85, N-{4-[4-(3-{[(3-Fluorophenyl)sulfonyl]amino}phenyl)-2-(1-methylethyl)-1,3-thiazol-5-yl]-2-pyrimidinyl}glycine] | 100 to 1000 | 31.6 to 1000 | > 1000 |  | > 1000 |  |  | 
CNc1nccc(-c2sc(C(C)C)nc2-c2cccc(NS(=O)(=O)c3cccc(F)c3)c2)n1 [Example 86, 3-Fluoro-N-{3-[5-[2-(methylamino)-4-pyrimidinyl]-2-(1-methylethyl)-1,3-thiazol-4-yl]phenyl}benzenesulfonamide] | < 100 | 31.6 to 1000 | > 1000 | 1000 to 10000 | > 1000 | 1000 to 10000 |  | 
CC(C)CNc1nccc(-c2sc(N3CCOCC3)nc2-c2cccc(NS(=O)(=O)c3c(F)cccc3F)c2F)n1 [Example 91, 2,6-Difluoro-N-{2-fluoro-3-[5-{2-[(2-methylpropyl)amino]-4-pyrimidinyl}-2-(4-morpholinyl)-1,3-thiazol-4-yl]phenyl}benzenesulfonamide] | < 100 | ≤ 3.16 | < 100 | < 100 | < 100 | < 100 |  | 
